Measured values as given in PubChem BioAssay (NCI).
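96-well plates; 48 h exposure; 5 concentrations. Endpoints by linear interpolation between flanking doses. Not reached: highest tested concentration assigned. At the TGI there is no net growth.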

Assays:
Test in all cases: DTP human tumour cell line panel, 48 h
[1] = tested on: IGROV1 ovarian
[2] = tested on: CCRF-CEM leukemia
[3] = tested on: NCI-H23 lung
[4] = tested on: ACHN renal
[5] = tested on: RXF 393 renal
[6] = tested on: SK-MEL-28 melanoma
[7] = tested on: HT29 colon
[8] = tested on: DMS 114 small cell lung
[9] = tested on: RPMI-8226 leukemia
[10] = tested on: OVCAR-3 ovarian
[11] = tested on: OVCAR-5 ovarian
[12] = tested on: SNB-19 CNS
[13] = tested on: M19-MEL melanoma
[14] = tested on: SR leukemia
[15] = tested on: OVCAR-8 ovarian
[16] = tested on: HCT-15 colon
[17] = tested on: HOP-92 NSCLC
[18] = tested on: CAKI-1 renal
[19] = tested on: LXFL 529 NSCLC
[20] = tested on: SNB-75 CNS
[21] = tested on: SK-MEL-2 melanoma
[22] = tested on: UACC-62 melanoma
[23] = tested on: HCT-116 colon
[24] = tested on: SK-MEL-5 melanoma
[25] = tested on: U251 CNS
[26] = tested on: A498 renal
[27] = tested on: HOP-62 NSCLC
[28] = tested on: KM12 colon
[29] = tested on: NCI-H460 lung
[30] = tested on: OVCAR-4 ovarian
[31] = tested on: A549 NSCLC
[32] = tested on: K-562 leukemia
[33] = tested on: SF-268 CNS
[34] = tested on: HOP-18 NSCLC
[35] = tested on: UO-31 renal
[36] = tested on: SF-539 CNS
[37] = tested on: SF-295 CNS
[38] = tested on: MOLT-4 leukemia
[39] = tested on: SW-620 colon
[40] = tested on: EKVX NSCLC
[41] = tested on: DMS 273 small cell lung
[42] = tested on: NCI-H226 lung
[43] = tested on: NCI-H522 lung
[44] = tested on: M14 melanoma
[45] = tested on: SN12C renal
[46] = tested on: HCC-2998 colon
[47] = tested on: TK-10 renal
[48] = tested on: DLD-1 colon
[49] = tested on: HL-60(TB) leukemia
[50] = tested on: UACC-257 melanoma
[51] = tested on: 786-0 renal
[52] = tested on: LOX IMVI melanoma
[53] = tested on: MALME-3M melanoma
[54] = tested on: SK-OV-3 ovarian
[55] = tested on: KM20L2 colon
[56] = tested on: COLO 205 colon
[57] = tested on: SNB-78 CNS
[58] = tested on: XF 498 CNS

SMILES: COc1ccc(-c2c(C3=NCCCN3)nnn2-c2ccc([N+](=O)[O-])cc2)cc1
- TGI [1]: > 100 µM
- TGI [2]: > 100 µM
- TGI [3]: > 100 µM
- TGI [4]: > 100 µM
- TGI [5]: > 100 µM
- TGI [6]: > 100 µM
- TGI [7]: > 100 µM
- TGI [8]: > 100 µM
- TGI [9]: > 100 µM
- TGI [10]: > 100 µM
- TGI [11]: > 100 µM
- TGI [12]: > 100 µM
- TGI [13]: > 100 µM
- TGI [14]: > 100 µM
- TGI [15]: > 100 µM
- TGI [16]: > 100 µM
- TGI [17]: > 100 µM
- TGI [18]: > 100 µM
- TGI [19]: > 100 µM
- TGI [20]: > 100 µM
- TGI [21]: > 100 µM
- TGI [22]: > 100 µM
- TGI [23]: > 100 µM
- TGI [24]: > 100 µM
- TGI [25]: > 100 µM
- TGI [26]: > 100 µM
- TGI [27]: > 100 µM
- TGI [28]: > 100 µM
- TGI [29]: > 100 µM
- TGI [30]: > 100 µM
- TGI [31]: > 100 µM
- TGI [32]: > 100 µM
- TGI [33]: > 100 µM
- TGI [34]: > 100 µM
- TGI [35]: > 100 µM
- TGI [36]: > 100 µM
- TGI [37]: > 100 µM
- TGI [38]: > 100 µM
- TGI [39]: > 100 µM
- TGI [40]: > 100 µM
- TGI [41]: > 100 µM
- TGI [42]: > 100 µM
- TGI [43]: > 100 µM
- TGI [44]: > 100 µM
- TGI [45]: > 100 µM
- TGI [46]: > 100 µM
- TGI [47]: > 100 µM
- TGI [48]: > 100 µM
- TGI [49]: > 100 µM
- TGI [50]: > 100 µM
- TGI [51]: > 100 µM
- TGI [52]: > 100 µM
- TGI [53]: > 100 µM
- TGI [54]: > 100 µM
- TGI [55]: > 100 µM
- TGI [56]: > 100 µM
- TGI [57]: > 100 µM

SMILES: O=C(O)/C=C\C(=O)Nc1ccc(S(=O)(=O)c2ccc(NC(=O)/C=C\C(=O)O)cc2)cc1
- TGI [1]: > 100 µM
- TGI [2]: > 100 µM
- TGI [3]: > 100 µM
- TGI [4]: > 100 µM
- TGI [6]: > 100 µM
- TGI [7]: > 100 µM
- TGI [8]: > 100 µM
- TGI [9]: > 100 µM
- TGI [10]: > 100 µM
- TGI [11]: > 100 µM
- TGI [12]: > 100 µM
- TGI [13]: > 100 µM
- TGI [14]: > 100 µM
- TGI [15]: > 100 µM
- TGI [16]: > 100 µM
- TGI [17]: > 100 µM
- TGI [18]: > 100 µM
- TGI [19]: > 100 µM
- TGI [20]: > 100 µM
- TGI [21]: > 100 µM
- TGI [22]: > 100 µM
- TGI [23]: > 100 µM
- TGI [24]: > 100 µM
- TGI [25]: > 100 µM
- TGI [27]: > 100 µM
- TGI [28]: > 100 µM
- TGI [30]: > 100 µM
- TGI [31]: > 100 µM
- TGI [32]: > 100 µM
- TGI [33]: > 100 µM
- TGI [35]: > 100 µM
- TGI [36]: > 100 µM
- TGI [37]: > 100 µM
- TGI [38]: > 100 µM
- TGI [39]: > 100 µM
- TGI [40]: > 100 µM
- TGI [42]: > 100 µM
- TGI [43]: > 100 µM
- TGI [44]: > 100 µM
- TGI [58]: > 100 µM
- TGI [45]: > 100 µM
- TGI [47]: > 100 µM
- TGI [48]: > 100 µM
- TGI [49]: > 100 µM
- TGI [50]: > 100 µM
- TGI [51]: > 100 µM
- TGI [52]: > 100 µM
- TGI [53]: > 100 µM
- TGI [54]: > 100 µM
- TGI [55]: > 100 µM
- TGI [56]: > 100 µM
- TGI [57]: > 100 µM

SMILES: N#CC(C#N)=c1c2nsnc2c(=C(C#N)C#N)c2nsnc12
- TGI [3]: 3.91 µM
- TGI [4]: 3.23 µM
- TGI [5]: 2.61 µM
- TGI [6]: 3.3 µM
- TGI [7]: 3.2 µM
- TGI [8]: 3.93 µM
- TGI [10]: 8.34 µM
- TGI [11]: 3.3 µM
- TGI [12]: 4.33 µM
- TGI [15]: 3.12 µM
- TGI [17]: 3.35 µM
- TGI [18]: 3.53 µM
- TGI [19]: 2.99 µM
- TGI [20]: 3.01 µM
- TGI [21]: 3.53 µM
- TGI [23]: 3.71 µM
- TGI [25]: 3.19 µM
- TGI [27]: 3.59 µM
- TGI [28]: 3.85 µM
- TGI [29]: 3.86 µM
- TGI [30]: 3.83 µM
- TGI [31]: 10.3 µM
- TGI [33]: 4.26 µM
- TGI [34]: 5.09 µM
- TGI [35]: 3.87 µM
- TGI [36]: 3.46 µM
- TGI [37]: 3.33 µM
- TGI [39]: 3.05 µM
- TGI [40]: 14.9 µM
- TGI [41]: 3.24 µM
- TGI [42]: 31.9 µM
- TGI [43]: 3.51 µM
- TGI [44]: 3.54 µM
- TGI [46]: 3.25 µM
- TGI [47]: 31.3 µM
- TGI [48]: 4.39 µM
- TGI [49]: 4.64 µM
- TGI [50]: 3.53 µM
- TGI [51]: 17.9 µM
- TGI [52]: 3 µM
- TGI [53]: 3.11 µM
- TGI [55]: 3.26 µM
- TGI [56]: 4.83 µM
- TGI [57]: 3.28 µM

SMILES: C=C1C(=O)C23C(O)CC4C5(C)CCCC4(C(O)OC5)C2C(OC(C)=O)CC1C3O (stereo unspecified)
- TGI [1]: 39.2 µM
- TGI [2]: 10.7 µM
- TGI [3]: 19.3 µM
- TGI [4]: 25.3 µM
- TGI [6]: 22.7 µM
- TGI [7]: 17.6 µM
- TGI [8]: 22.2 µM
- TGI [9]: 17.7 µM
- TGI [10]: 28.2 µM
- TGI [11]: 31.9 µM
- TGI [12]: 28.1 µM
- TGI [13]: 30.7 µM
- TGI [14]: 18.5 µM
- TGI [15]: 14.1 µM
- TGI [16]: 27.4 µM
- TGI [17]: 14.6 µM
- TGI [18]: 17.8 µM
- TGI [19]: 12.2 µM
- TGI [20]: 16.6 µM
- TGI [21]: 30.3 µM
- TGI [22]: 19.8 µM
- TGI [23]: 18.5 µM
- TGI [24]: 31.1 µM
- TGI [25]: 30.7 µM
- TGI [27]: 32.2 µM
- TGI [28]: 22.1 µM
- TGI [29]: 15.9 µM
- TGI [30]: 27.8 µM
- TGI [31]: 51.5 µM
- TGI [32]: 11.7 µM
- TGI [33]: 32.4 µM
- TGI [34]: 30.4 µM
- TGI [35]: > 100 µM
- TGI [36]: 25.8 µM
- TGI [37]: 41.4 µM
- TGI [38]: 17 µM
- TGI [39]: 10.6 µM
- TGI [40]: 27.7 µM
- TGI [41]: 41.3 µM
- TGI [42]: 37.1 µM
- TGI [43]: 3.64 µM
- TGI [44]: 15.1 µM
- TGI [45]: 24.3 µM
- TGI [46]: 32.4 µM
- TGI [47]: 23.1 µM
- TGI [48]: 20.6 µM
- TGI [51]: 19.2 µM
- TGI [52]: 29.2 µM
- TGI [53]: 28.8 µM
- TGI [54]: 37.1 µM
- TGI [55]: 21.2 µM
- TGI [56]: 18.9 µM
- TGI [57]: 33.9 µM
